Measured values published in PubChem BioAssay AID1919014 (Molecular Pharmacology Branch, DTP, NCI, 2023).
“And” between values parts separate entries of the source, which are not always exact repeats. Equal values may be shown once.

Test system: NCI-H1341 complex spheroids, percent test/control
Assay: Anticancer human tumor NCI-H1341 cell line growth inhibition [AhR];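 also: spheroids exposed to agents for seven days before readout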
Details: for viability, T/C: stronger effect = lower value
How it was run: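 Spheroids combined tumor cells with HUVEC endothelial cells and human MSCs as stroma. AhR antagonists were paired with standard or investigational drugs, each dosed in half-log steps down from near clinical Cmax, or from 10 microM where Cmax was unknown.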

[1] = curve of first compound, second compound 0.1 µM
[2] = curve of first compound, second compound 0.316 µM
[3] = curve of first compound, second compound 1 µM
[4] = curve of first compound, second compound 3.16 µM
[5] = curve of first compound, second compound 10 µM
[6] = second compound 0.1 µM, first compound 0.0316 µM
[7] = second compound 0.1 µM, first compound 0.1 µM
[8] = second compound 0.1 µM, first compound 0.316 µM
[9] = second compound 0.1 µM, first compound 1 µM
[10] = second compound 0.1 µM, first compound 3.16 µM
[11] = second compound 0.1 µM, first compound 10 µM
[12] = second compound 0.316 µM, first compound 0.0316 µM
[13] = second compound 0.316 µM, first compound 0.1 µM
[14] = second compound 0.316 µM, first compound 0.316 µM
[15] = second compound 0.316 µM, first compound 1 µM
[16] = second compound 0.316 µM, first compound 3.16 µM
[17] = second compound 0.316 µM, first compound 10 µM
[18] = second compound 1 µM, first compound 0.0316 µM
[19] = second compound 1 µM, first compound 0.1 µM
[20] = second compound 1 µM, first compound 0.316 µM
[21] = second compound 1 µM, first compound 1 µM
[22] = second compound 1 µM, first compound 3.16 µM
[23] = second compound 1 µM, first compound 10 µM
[24] = second compound 3.16 µM, first compound 0.0316 µM
[25] = second compound 3.16 µM, first compound 0.1 µM
[26] = second compound 3.16 µM, first compound 0.316 µM
[27] = second compound 3.16 µM, first compound 1 µM
[28] = second compound 3.16 µM, first compound 3.16 µM
[29] = second compound 3.16 µM, first compound 10 µM
[30] = second compound 10 µM, first compound 0.0316 µM
[31] = second compound 10 µM, first compound 0.1 µM
[32] = second compound 10 µM, first compound 0.316 µM
[33] = second compound 10 µM, first compound 1 µM
[34] = second compound 10 µM, first compound 3.16 µM
[35] = second compound 10 µM, first compound 10 µM

With `CC(C)c1c(-c2ccccc2)nc2c(C#N)c[nH]n2c1=O` + Cc1ccccc1N=Nc1ccc(NC(=O)c2ccnn2C)c(C)c1 the IC50 [1] was > 10000 nM, the IC50 [2] was > 10000 nM and the IC50 [3] was > 10000 nM. For the same compound, the IC50 [4] was > 10000 nM, the IC50 [5] was < 31.6 nM and the viability, T/C [6] was 84.2%. It also gave a viability, T/C [7] of 87.6%, a viability, T/C [8] of 86.5% and a viability, T/C [9] of 87.5%. It also gave a viability, T/C [10] of 81.7%, a viability, T/C [11] of 96.4% and a viability, T/C [12] of 99%. It also gave a viability, T/C [13] of 82.8%, a viability, T/C [14] of 84.2% and a viability, T/C [15] of 92.2%. It also gave a viability, T/C [16] of 97.5%, a viability, T/C [17] of 83.2% and a viability, T/C [18] of 90.1%. For the same compound, the viability, T/C [19] was 93.8%, the viability, T/C [20] was 74% and the viability, T/C [21] was 81.7%. It also gave a viability, T/C [22] of 83.8%, a viability, T/C [23] of 95.7% and a viability, T/C [24] of 72.2%. It also gave a viability, T/C [25] of 77.1%, a viability, T/C [26] of 59.5% and a viability, T/C [27] of 72.2%. It also gave a viability, T/C [28] of 73.3%, a viability, T/C [29] of 76.4% and a viability, T/C [30] of 44.9%. The viability, T/C [31] was 49%, the viability, T/C [32] was 52% and the viability, T/C [33] was 48.6%. The viability, T/C [34] was 59.3% and the viability, T/C [35] was 42.9%.
With `NS(=O)(=O)OCC1CC(n2ccc3c(NC4CCc5ccccc54)ncnc32)CC1O` (centres undefined) + CC(CO)NC(=O)c1cc(-c2ccc(Cl)cc2)nn(-c2cnn(C)c2)c1=O the IC50 [1] was < 31.6 nM, the IC50 [2] was < 31.6 nM and the IC50 [3] was < 31.6 nM. The IC50 [4] was < 31.6 nM, the IC50 [5] was < 31.6 nM and the viability, T/C [6] was 33%. It also gave a viability, T/C [7] of 28%, a viability, T/C [8] of 11% and a viability, T/C [9] of 5.48%. It also gave a viability, T/C [10] of 5.17%, a viability, T/C [11] of 3.34% and a viability, T/C [12] of 37.6%. The viability, T/C [13] was 28.2%, the viability, T/C [14] was 13.5% and the viability, T/C [15] was 6.9%. The viability, T/C [16] was 3.38%, the viability, T/C [17] was 3.76% and the viability, T/C [18] was 39.7%. The viability, T/C [19] was 31.2%, the viability, T/C [20] was 13.1% and the viability, T/C [21] was 6.82%. The viability, T/C [22] was 4.46%, the viability, T/C [23] was 3.84% and the viability, T/C [24] was 32.1%. It also gave a viability, T/C [25] of 27.6%, a viability, T/C [26] of 14.8% and a viability, T/C [27] of 7.34%. It also gave a viability, T/C [28] of 5.49%, a viability, T/C [29] of 4.2% and a viability, T/C [30] of 29.1%. For the same compound, the viability, T/C [31] was 23.1%, the viability, T/C [32] was 13.8% and the viability, T/C [33] was 7.32%. It also gave a viability, T/C [34] of 5.1% and a viability, T/C [35] of 2.95%.
`O=C(C=Cn1cnc(-c2cc(C(F)(F)F)cc(C(F)(F)F)c2)n1)NNc1cnccn1` + Cc1ccccc1N=Nc1ccc(NC(=O)c2ccnn2C)c(C)c1 gave an IC50 [1] of 51.3 nM, an IC50 [2] of 49.7 nM and an IC50 [3] of 53.6 nM. For the same compound, the IC50 [4] was < 9.49 nM, the IC50 [5] was < 9.49 nM and the viability, T/C (second compound 0.1 µM, first compound 0.00949 µM) was 85.4%. It also gave a viability, T/C (second compound 0.1 µM, first compound 0.03 µM) of 63.4%, a viability, T/C (second compound 0.1 µM, first compound 0.0949 µM) of 35.2% and a viability, T/C (second compound 0.1 µM, first compound 0.3 µM) of 12.9%. The viability, T/C (second compound 0.1 µM, first compound 0.949 µM) was 8.66%, the viability, T/C (second compound 0.1 µM, first compound 3 µM) was 7.84% and the viability, T/C (second compound 0.316 µM, first compound 0.00949 µM) was 69.5%. It also gave a viability, T/C (second compound 0.316 µM, first compound 0.03 µM) of 59%, a viability, T/C (second compound 0.316 µM, first compound 0.0949 µM) of 38.3% and a viability, T/C (second compound 0.316 µM, first compound 0.3 µM) of 15.2%. The viability, T/C (second compound 0.316 µM, first compound 0.949 µM) was 9.67%, the viability, T/C (second compound 0.316 µM, first compound 3 µM) was 6.9% and the viability, T/C (second compound 1 µM, first compound 0.00949 µM) was 67.7%. For the same compound, the viability, T/C (second compound 1 µM, first compound 0.03 µM) was 66.7%, the viability, T/C (second compound 1 µM, first compound 0.0949 µM) was 34.5% and the viability, T/C (second compound 1 µM, first compound 0.3 µM) was 15.4%. For the same compound, the viability, T/C (second compound 1 µM, first compound 0.949 µM) was 8.51%, the viability, T/C (second compound 1 µM, first compound 3 µM) was 8.16% and the viability, T/C (second compound 3.16 µM, first compound 0.00949 µM) was 47.9%. The viability, T/C (second compound 3.16 µM, first compound 0.03 µM) was 40.7%, the viability, T/C (second compound 3.16 µM, first compound 0.0949 µM) was 30.6% and the viability, T/C (second compound 3.16 µM, first compound 0.3 µM) was 13.2%. It also gave a viability, T/C (second compound 3.16 µM, first compound 0.949 µM) of 11.4%, a viability, T/C (second compound 3.16 µM, first compound 3 µM) of 6.99% and a viability, T/C (second compound 10 µM, first compound 0.00949 µM) of 40.7%. The viability, T/C (second compound 10 µM, first compound 0.03 µM) was 35%, the viability, T/C (second compound 10 µM, first compound 0.0949 µM) was 24.2% and the viability, T/C (second compound 10 µM, first compound 0.3 µM) was 15.6%. For the same compound, the viability, T/C (second compound 10 µM, first compound 0.949 µM) was 10.8% and the viability, T/C (second compound 10 µM, first compound 3 µM) was 6.32%.
In the case of `NS(=O)(=O)OCC1CC(n2ccc3c(NC4CCc5ccccc54)ncnc32)CC1O` (centres undefined), the viability, T/C (compound 0.0316 µM) is reported as 52.1% and 44.4% and 32.1%, the viability, T/C (compound 0.1 µM) is reported as 41.7% and 37.3% and 22.6% and the viability, T/C (compound 0.316 µM) is reported as 27.1% and 18% and 11.2%. The viability, T/C (compound 1 µM) was 12.3% and 12.1% and 6.23%, the viability, T/C (compound 3.16 µM) was 11.9% and 7.68% and 3.37% and the viability, T/C (compound 10 µM) was 11.4% and 4.21% and 2.28%. The IC50 (curve of compound) was 39.2 nM and < 31.6 nM.
In the case of `Nc1ncn(C2CC(O)C(CO)O2)c(=O)n1` (centres undefined), the viability, T/C (compound 0.00316 µM) is reported as 107% and 86.3% and 88.1%, the viability, T/C (compound 0.01 µM) is reported as 95.4% and 112% and 100% and the viability, T/C (compound 0.0316 µM) is reported as 102% and 89.2% and 69.8%. For the same compound, the viability, T/C (compound 0.1 µM) was 64.2% and 72.3% and 74.5%, the viability, T/C (compound 0.316 µM) was 50.6% and 52.8% and 43.7% and the viability, T/C (compound 1 µM) was 37% and 45.7% and 25.6%. For the same compound, the IC50 (curve of compound) was 231 nM and 466 nM and 261 nM.
`Nc1ncn(C2CC(O)C(CO)O2)c(=O)n1` (centres undefined) + Cc1ccccc1N=Nc1ccc(NC(=O)c2ccnn2C)c(C)c1 was tested, and the IC50 [1] was > 1000 nM, the IC50 [2] was > 1000 nM and the IC50 [3] was > 1000 nM. For the same compound, the IC50 [4] was 763 nM, the IC50 [5] was 135 nM and the viability, T/C (second compound 0.1 µM, first compound 0.00316 µM) was 102%. It also gave a viability, T/C (second compound 0.1 µM, first compound 0.01 µM) of 103%, a viability, T/C [6] of 84.1% and a viability, T/C [7] of 63.7%. For the same compound, the viability, T/C [8] was 59.6%, the viability, T/C [9] was 51% and the viability, T/C (second compound 0.316 µM, first compound 0.00316 µM) was 102%. The viability, T/C (second compound 0.316 µM, first compound 0.01 µM) was 101%, the viability, T/C [12] was 100% and the viability, T/C [13] was 79.2%. The viability, T/C [14] was 53.8%, the viability, T/C [15] was 51% and the viability, T/C (second compound 1 µM, first compound 0.00316 µM) was 100%. The viability, T/C (second compound 1 µM, first compound 0.01 µM) was 97%, the viability, T/C [18] was 81% and the viability, T/C [19] was 60.2%. The viability, T/C [20] was 63%, the viability, T/C [21] was 54.5% and the viability, T/C (second compound 3.16 µM, first compound 0.00316 µM) was 81.4%. The viability, T/C (second compound 3.16 µM, first compound 0.01 µM) was 77%, the viability, T/C [24] was 68.5% and the viability, T/C [25] was 61.8%. It also gave a viability, T/C [26] of 53.1%, a viability, T/C [27] of 49.7% and a viability, T/C (second compound 10 µM, first compound 0.00316 µM) of 70.6%. For the same compound, the viability, T/C (second compound 10 µM, first compound 0.01 µM) was 54.9%, the viability, T/C [30] was 61.8% and the viability, T/C [31] was 49.9%. For the same compound, the viability, T/C [32] was 47.8% and the viability, T/C [33] was 42.1%.
